Columns and labels:
Assay in all cases: relative viability (nuclei count vs DMSO), 5 days (fraction); higher = more cells survive
Halofuginone + Olaparib = compound: O=C(C[C@H]1NCCC[C@@H]1O)Cn1cnc2cc(Br)c(Cl)cc2c1=O (racemic) [Halofuginone] + O=C(c1cc(Cc2n[nH]c(=O)c3ccccc23)ccc1F)N1CCN(C(=O)C2CC2)CC1 [Olaparib] (partner 8 µM)
In short: (§1)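 Medians of duplicate plates are given as relative viability. That measure is the nuclei count in treated wells divided by the count in vehicle wells. Counts were taken on 4× images of lung cancer cell lines in 1536-well plates, 5 days after pin-tool dosing the day after seeding with one drug alone or a fixed anchor-drug dose plus five library-drug doses (not always all listed) in √10 steps.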

[1] = compound: O=C(C[C@H]1NCCC[C@@H]1O)Cn1cnc2cc(Br)c(Cl)cc2c1=O (racemic) [Halofuginone] + CC1(C)CCC(c2ccc(Cl)cc2)=C(CN2CCN(c3ccc(C(=O)NS(=O)(=O)c4ccc(N[C@H](CCN5CCOCC5)CSc5ccccc5)c(S(=O)(=O)C(F)(F)F)c4)cc3)CC2)C1 [Navitoclax] (partner 0.5 µM)
In short: as §1

[2] = compound: O=C(C[C@H]1NCCC[C@@H]1O)Cn1cnc2cc(Br)c(Cl)cc2c1=O (racemic) [Halofuginone] + N=C(N)NC(=N)NCCc1ccccc1 [Phenformin] (partner 250 µM)
In short: as §1

Decitabine + Alpelisib = compound: Nc1ncn([C@H]2C[C@H](O)[C@@H](CO)O2)c(=O)n1 [Decitabine] + Cc1nc(NC(=O)N2CCC[C@H]2C(N)=O)sc1-c1ccnc(C(C)(C)C(F)(F)F)c1 [Alpelisib] (partner 2 µM)
In short: as §1

Cell Line | relative viability (Halofuginone + Olaparib; first compound 0.001 µM) | relative viability (Halofuginone + Olaparib; first compound 0.003162 µM) | relative viability (Halofuginone + Olaparib; first compound 0.01 µM) | relative viability (Halofuginone + Olaparib; first compound 0.03162 µM) | relative viability (Halofuginone + Olaparib; first compound 0.1 µM) | relative viability ([1]; first compound 0.001 µM) | relative viability ([1]; first compound 0.003162 µM) | relative viability ([1]; first compound 0.01 µM) | relative viability ([1]; first compound 0.03162 µM) | relative viability ([1]; first compound 0.1 µM) | relative viability ([2]; first compound 0.001 µM) | relative viability ([2]; first compound 0.003162 µM) | relative viability ([2]; first compound 0.01 µM) | relative viability ([2]; first compound 0.03162 µM) | relative viability ([2]; first compound 0.1 µM) | relative viability (Decitabine + Alpelisib; first compound 0.04 µM) | relative viability (Decitabine + Alpelisib; first compound 0.1265 µM) | relative viability (Decitabine + Alpelisib; first compound 0.4 µM) | relative viability (Decitabine + Alpelisib; first compound 1.265 µM) | relative viability (Decitabine + Alpelisib; first compound 4 µM)
NCI-H520 | 0.324 | 0.291 | 0.303 | 0.378 | 0.187 | 1.18 | 1.05 | 1.03 | 0.835 | 0.346 | 0.606 | 0.78 | 0.569 | 0.582 | 0.193 | 0.896 | 0.69 | 0.597 | 0.369 | 0.337
NCI-H596 | 0.756 | 0.737 | 0.655 | 0.752 | 0.549 | 0.911 | 0.912 | 0.997 | 1 | 0.606 | 0.732 | 0.84 | 0.742 | 0.938 | 0.569 | 0.449 | 0.46 | 0.462 | 0.451 | 0.407
NCI-H647 | 0.637 | 0.746 | 0.517 | 0.442 | 0.11 | 1.15 | 1.09 | 1.13 | 0.829 | 0.415 | 0.659 | 0.642 | 0.544 | 0.368 | 0.195 | 0.971 | 0.858 | 0.632 | 0.201 | 0.254
NCI-H727 | 0.79 | 0.683 | 0.787 | 0.727 | 0.518 | 0.481 | 0.316 | 0.397 | 0.355 | 0.22 | 0.784 | 0.577 | 0.422 | 0.628 | 0.317 | 0.453 | 0.405 | 0.333 | 0.35 | 0.401
NCI-H838 | 0.817 | 0.784 | 0.734 | 0.527 | 0.107 | 1.17 | 1.24 | 0.994 | 0.954 | 0.208 | 0.668 | 0.713 | 0.525 | 0.347 | 0.199 | 0.715 | 0.461 | 0.409 | 0.396 | 0.276
NCI-H1355 | 0.785 | 0.805 | 0.611 | 0.754 | 0.7 | 0.929 | 0.949 | 0.902 | 1.08 | 0.715 | 0.456 | 0.503 | 0.429 | 0.441 | 0.407 | 0.632 | 0.536 | 0.412 | 0.295 | 0.266
NCI-H1395 | 0.462 | 0.469 | 0.471 | 0.433 | 0.388 | 1.15 | 1.44 | 1.07 | 1.16 | 1.26 | 0.457 | 0.464 | 0.442 | 0.444 | 0.334 | 0.821 | 0.776 | 0.786 | 0.518 | 0.631
NCI-H1437 | 0.649 | 0.653 | 0.619 | 0.616 | 0.456 | 1.09 | 1.13 | 1.06 | 0.976 | 0.436 | 0.329 | 0.308 | 0.3 | 0.297 | 0.258 | 0.787 | 0.679 | 0.464 | 0.246 | 0.215
